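Tested at 5 concentrations; 48 h exposure; 96-well plates; endpoints linearly interpolated, else capped at highest concentration. GI50 = concentration required for 50% inhibition of growth.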 Active and inactive are the calls of the source. Cut-off read from the data, not from the text of the source: active = GI50 up to about 1.1 µM and inactive = higher.
Legend:
Experiment in all cases: NCI tumour cell line growth inhibition, 48 h
T47D = system: T47D
UACC-257 = system: UACC-257
MDA-MB-231 = system: MDA-MB-231
MDA-MB-435 = system: MDA-MB-435
HCC 2998 = system: HCC 2998
SN12C = system: SN12C
KM12 = system: KM12
K562 = system: K562
LOX IMVI = system: LOX IMVI
CAKI-1 = system: CAKI-1
UACC-62 = system: UACC-62
BT-549 = system: BT-549
NCI-H522 = system: NCI-H522
MDA-N = system: MDA-N
Hs-578T = system: Hs-578T
SK-MEL-2 = system: SK-MEL-2
KM-20L2 = system: KM-20L2
XF498 = system: XF498
HOP-18 = system: HOP-18
DLD-1 = system: DLD-1

Measured: GI50

COc1ccc(C(=O)c2c(-c3ccccc3NC(=O)C(F)(F)F)[nH]c3ccccc23)cc1
inactive: T47D 1.47 µM | UACC-257 15.6 µM | MDA-MB-231 7.28 µM | MDA-MB-435 9.89 µM | HCC 2998 3.4 µM | SN12C 14.6 µM | KM12 3.88 µM | K562 5.65 µM | LOX IMVI 4.35 µM | CAKI-1 6.41 µM | UACC-62 12.1 µM | BT-549 14.5 µM | NCI-H522 7.33 µM | MDA-N 15.3 µM | Hs-578T 18.1 µM | SK-MEL-2 4.02 µM

O=C1C(Cl)N(c2ccc(Cl)cc2Cl)C1c1c[nH]c2ccccc12 (stereo unspecified)
inactive: UACC-257 > 100 µM | SN12C > 100 µM | KM-20L2 > 100 µM | KM12 > 100 µM | K562 > 100 µM | UACC-62 > 100 µM | NCI-H522 > 100 µM | XF498 > 100 µM | SK-MEL-2 > 100 µM

Cn1cnc(/C=C/C#N)c1
inactive: UACC-257 > 100 µM | MDA-MB-231 > 100 µM | MDA-MB-435 > 100 µM | HCC 2998 > 100 µM | SN12C > 100 µM | KM12 > 100 µM | K562 > 100 µM | CAKI-1 > 100 µM | UACC-62 > 100 µM | BT-549 > 100 µM | NCI-H522 > 100 µM | MDA-N > 100 µM | SK-MEL-2 > 100 µM

Clc1cc(Cl)cc(C2ON=C(c3ccccc3)N2C23CC4CC(CC(C4)C2)C3)c1 (stereo unspecified)
inactive: T47D > 10 µM | UACC-257 > 10 µM | MDA-MB-231 > 10 µM | MDA-MB-435 > 10 µM | HCC 2998 > 10 µM | SN12C > 10 µM | KM12 > 10 µM | K562 > 10 µM | LOX IMVI > 10 µM | CAKI-1 > 10 µM | UACC-62 > 10 µM | BT-549 > 10 µM | NCI-H522 > 10 µM | MDA-N > 10 µM | Hs-578T > 10 µM | SK-MEL-2 > 10 µM

CC(C)(C)c1cc(C(P(=O)(c2ccccc2)c2ccccc2)P(=O)(c2ccccc2)c2ccccc2)cc(C(C)(C)C)c1O
inactive: T47D 2.9 µM | UACC-257 2.04 µM | MDA-MB-231 2.76 µM | MDA-MB-435 1.9 µM | HCC 2998 1.72 µM | SN12C 3.39 µM | KM12 1.8 µM | K562 3.42 µM | LOX IMVI 1.92 µM | CAKI-1 3.85 µM | UACC-62 1.58 µM | BT-549 3.36 µM | NCI-H522 2.28 µM | MDA-N 1.91 µM | Hs-578T 2.48 µM | SK-MEL-2 1.87 µM

COc1nc(N)c(C(=O)CCl)c(=O)n1C
inactive: UACC-257 11.5 µM | HCC 2998 9.68 µM | SN12C 17.5 µM | KM-20L2 18.3 µM | KM12 14.3 µM | K562 8.17 µM | LOX IMVI 5.28 µM | CAKI-1 7.41 µM | HOP-18 16.4 µM | XF498 16.4 µM | DLD-1 13.2 µM | SK-MEL-2 12.5 µM

N/C(=N\O)N/N=C\c1c(O)cc(O)cc1O
inactive: UACC-257 99.3 µM | HCC 2998 73.8 µM | SN12C 78.7 µM | KM-20L2 > 100 µM | KM12 36.4 µM | K562 29.2 µM | LOX IMVI 60.8 µM | CAKI-1 > 100 µM | UACC-62 15.8 µM | HOP-18 > 64 µM | NCI-H522 39.7 µM | DLD-1 > 82.8 µM | SK-MEL-2 > 100 µM

O=C1c2ccccc2OCC1/C=N/O (stereo unspecified)
inactive: UACC-257 > 56.1 µM | HCC 2998 > 100 µM | SN12C > 80.5 µM | KM12 96.8 µM | K562 > 100 µM | LOX IMVI 31.3 µM | UACC-62 > 100 µM | HOP-18 > 100 µM | NCI-H522 24.9 µM | XF498 > 100 µM | DLD-1 > 91.4 µM | SK-MEL-2 86.3 µM

O=C(CCCN1CCC2(CC1)NC(=O)c1ccccc1O2)c1ccc(F)cc1
inactive: T47D 84.3 µM | UACC-257 55.5 µM | MDA-MB-231 > 100 µM | MDA-MB-435 > 100 µM | HCC 2998 > 100 µM | SN12C > 100 µM | KM12 > 100 µM | K562 39.7 µM | LOX IMVI 80 µM | CAKI-1 > 100 µM | UACC-62 > 100 µM | BT-549 46.6 µM | NCI-H522 > 100 µM | MDA-N > 100 µM | Hs-578T 96.8 µM | SK-MEL-2 > 100 µM

CC1(C23CC4CC(CC(C4)C2)C3)n2c(=O)n(-c3ccccc3)c(=O)n2C1(C)C12CC3CC(CC(C3)C1)C2 (stereo unspecified)
inactive: T47D > 100 µM | UACC-257 > 100 µM | MDA-MB-231 > 100 µM | MDA-MB-435 > 100 µM | SN12C > 100 µM | KM12 > 100 µM | K562 > 100 µM | CAKI-1 > 100 µM | UACC-62 > 100 µM | BT-549 > 100 µM | MDA-N > 100 µM | Hs-578T 18.8 µM | SK-MEL-2 > 100 µM

O=C(O)CN(CC(=O)O)C1CCCCC1N(CC(=O)O)CC(=O)NCCN=C=S (stereo unspecified)
inactive: T47D > 100 µM | UACC-257 > 100 µM | MDA-MB-231 > 100 µM | MDA-MB-435 > 100 µM | HCC 2998 > 100 µM | SN12C > 100 µM | KM12 > 100 µM | K562 > 100 µM | LOX IMVI > 100 µM | CAKI-1 > 100 µM | UACC-62 > 100 µM | BT-549 > 100 µM | NCI-H522 > 100 µM | MDA-N > 100 µM | Hs-578T > 100 µM | SK-MEL-2 > 100 µM

CCOC(=O)C(NC(C)=O)(Nc1ccc(F)cc1)C(F)(F)F (stereo unspecified)
inactive: T47D 23.2 µM | UACC-257 > 100 µM | MDA-MB-231 > 100 µM | MDA-MB-435 3.95 µM | HCC 2998 5.18 µM | SN12C > 100 µM | KM12 83.2 µM | K562 2.61 µM | LOX IMVI > 100 µM | CAKI-1 > 100 µM | UACC-62 18.2 µM | BT-549 > 100 µM | NCI-H522 > 100 µM | MDA-N 4.75 µM | Hs-578T > 100 µM | SK-MEL-2 > 100 µM

O=c1c(Cc2ccc(Cc3c(O)oc4ccccc4c3=O)cc2)c(O)oc2ccccc12
inactive: T47D > 100 µM | UACC-257 > 100 µM | MDA-MB-231 > 100 µM | MDA-MB-435 > 100 µM | HCC 2998 > 100 µM | SN12C > 100 µM | K562 > 100 µM | LOX IMVI > 100 µM | CAKI-1 > 100 µM | UACC-62 > 100 µM | BT-549 > 100 µM | MDA-N > 100 µM | Hs-578T > 100 µM | SK-MEL-2 > 100 µM

COC(=O)C1=C(O)C(C(=O)OC)[C@@]2(O)[C@@H](C(=O)OC)CC[C@@H]1[C@@H]2C(=O)OC (stereo partly specified)
inactive: T47D 54.2 µM | UACC-257 27.4 µM | MDA-MB-231 25.1 µM | MDA-MB-435 18.2 µM | HCC 2998 16.4 µM | SN12C 25.4 µM | KM12 21.6 µM | K562 25.4 µM | LOX IMVI 21.3 µM | UACC-62 30 µM | BT-549 25.5 µM | NCI-H522 10.6 µM | Hs-578T 11.1 µM | SK-MEL-2 16 µM

Source: ChEMBL document CHEMBL1201862, “PubChem BioAssay data set” (2004)
